Measurements as given in US9090593B2, “Bicyclic compounds as Pim inhibitors” (AMGEN INC., priority 2010, dated 2015).
Read-outs that look alike come from different tables or passages of the source.

Columns and labels:
[1] = target: T1, Pim-1 stably transfected into the U2OS human osteogenic sarcoma line (Homo sapiens, UniProt P11309); assay: Pim cell assay, phospho-BAD normalized against total BAD, U2OS stably transfected with Pim-1; assay type: cell-based; conditions: read-out: Pim1_Cell_IC50
T1 construct: expressed in transfected cells; host or cells: U2OS human osteogenic sarcoma line
How it was run: (§1)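 U2OS cells stably expressing Pim-1 or Pim-2 were plated overnight at 37 °C, then dosed over a 10-point curve (final 0.3% DMSO; DMSO alone as high control). Lysates assayed for phospho- and total BAD by Meso Scale immunoassay; % phosphoprotein = (2×phospho)/(phospho+total)×100.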

[2] = target: T2, full length recombinant Pim-2 protein (Homo sapiens, UniProt Q9P1W9); assay: Pim-2 enzyme assay (HTRF, phosphorylation of biotinylated-BAD (S112) peptide); assay type: biochemical; conditions: enzyme assay, Pim-2; read-out: Pim2_IC50
T2 construct: by full length recombinant Pim-1, Pim-2, or Pim-3 protein; hexahistidine tag followed by a thrombin cleavage site (N); made in house; host or cells: Sf9 (baculovirus) or E. coli (pET28)
How it was run: (§2)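 Inhibition is reported as IC50 from a 4-parameter logistic fit of percent-of-control HTRF signal, which tracks phospho-BAD (S112) formed by full-length human Pim-1 or Pim-2. Reactions ran in 60 mM Hepes, pH 7.0, 0.05% BSA, 2 mM DTT.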

[3] = target: T3, full length recombinant Pim-1 protein (Homo sapiens, UniProt P11309); assay: Pim-1 enzyme assay (HTRF, phosphorylation of biotinylated-BAD (S112) peptide); assay type: biochemical; conditions: enzyme assay, Pim-1; read-out: Pim_1_IC50
T3 construct: by full length recombinant Pim-1, Pim-2, or Pim-3 protein; hexahistidine tag followed by a thrombin cleavage site (N); made in house; host or cells: Sf9 (baculovirus) or E. coli (pET28)
How it was run: as §2

[4] = target: T4, Pim-2 stably transfected into the U2OS human osteogenic sarcoma line (Homo sapiens, UniProt Q9P1W9); assay: Pim cell assay, phospho-BAD normalized against total BAD, U2OS stably transfected with Pim-2; assay type: cell-based; conditions: read-out: Pim2_Cell_IC50; further: high dose 31.6 µM
T4 construct: expressed in transfected cells; host or cells: U2OS human osteogenic sarcoma line
How it was run: as §1

[5] = target: T5, full length recombinant Pim-3 protein (Homo sapiens, UniProt Q86V86); assay: Pim-3 enzyme assay (HTRF, phosphorylation of biotinylated-BAD (S112) peptide); assay type: biochemical; conditions: read-out: Pim3 IC50
T5 construct: by full length recombinant Pim-1, Pim-2, or Pim-3 protein; purchased Millipore (UK)
How it was run: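 Full-length recombinant Pim-3 phosphorylates biotinylated BAD (S112) peptide in 60 mM Hepes pH 7.0, 0.05% BSA, 2 mM DTT; reaction stopped with 3 mM EDTA. Phospho-BAD detected by HTRF (Eu anti-phospho-BAD S112 antibody, streptavidin-APC). IC50 from percent-of-control values fitted to a 4-parameter logistic model.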

[6] = U2OS cells stably transfected with Pim-1, phospho-BAD, high dose […]
[7] = U2OS cells stably transfected with Pim-2, phospho-BAD, high dose […]

T2 sequence (Q9P1W9 whole entry): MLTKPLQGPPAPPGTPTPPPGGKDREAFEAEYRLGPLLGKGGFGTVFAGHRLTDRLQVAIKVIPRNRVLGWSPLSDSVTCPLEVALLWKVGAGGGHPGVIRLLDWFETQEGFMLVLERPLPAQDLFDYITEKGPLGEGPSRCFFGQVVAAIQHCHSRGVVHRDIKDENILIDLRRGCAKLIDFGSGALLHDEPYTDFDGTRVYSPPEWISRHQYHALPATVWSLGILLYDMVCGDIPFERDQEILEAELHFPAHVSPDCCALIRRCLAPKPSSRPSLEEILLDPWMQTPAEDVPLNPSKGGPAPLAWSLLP
T4 sequence (Q9P1W9 whole entry): as above
T3 sequence (P11309 whole entry): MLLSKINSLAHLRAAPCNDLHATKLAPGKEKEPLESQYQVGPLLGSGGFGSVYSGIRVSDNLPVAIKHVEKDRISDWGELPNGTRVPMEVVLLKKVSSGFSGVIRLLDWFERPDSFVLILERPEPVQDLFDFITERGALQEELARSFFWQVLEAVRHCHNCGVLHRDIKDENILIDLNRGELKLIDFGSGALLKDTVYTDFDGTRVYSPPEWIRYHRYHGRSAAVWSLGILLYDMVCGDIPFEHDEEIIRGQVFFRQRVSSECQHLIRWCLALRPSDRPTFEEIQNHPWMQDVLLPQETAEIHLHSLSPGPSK
T1 sequence (P11309 whole entry): as above

Structure (SMILES) | IC50 [1, 6] | IC50 [2] | IC50 [3] | IC50 [4, 7] | IC50 [5] | IC50 [1] | IC50 [4]
NC1CCN(c2cncc(-c3n[nH]c4ccc(Br)cc34)n2)CC1 [Example 1, 1-(6-(5-bromo-1H-indazol-3-yl)pyrazin-2-yl)piperidin-4-amine] | 0.788 µM | 0.023 µM | 0.031 µM | 8.73 µM | 0.011 µM | – | –
NC1CCN(c2cncc(-c3n[nH]c4ccc(-c5cc(C(=O)NC6CC6)ccc5F)cc34)n2)CC1 [Example 3, 3-(3-(6-(4-aminopiperidin-1-yl)pyrazin-2-yl)-1H-indazol-5-yl)-N-cyclopropyl-4-fluorobenzamide] | 3.68 µM | 0.013 µM | 0.008 µM | 7.39 µM | 0.009 µM | – | –
COc1cccc(-c2ccc3[nH]nc(-c4cncc(N5CCC(N)CC5)n4)c3c2)c1F [Example 4, 1-(6-(5-(2-fluoro-3-methoxyphenyl)-1H-indazol-3-yl)pyrazin-2-yl)piperidin-4-amine] | 0.234 µM | 0.035 µM | 0.002 µM | > 31.6 µM | 0.004 µM | – | –
NC1CCN(c2cncc(-c3n[nH]c4ccc(-c5cccc(F)c5)cc34)n2)CC1 [Example 7, 1-(6-(5-(3-Fluorophenyl)-1H-indazol-3-yl)pyrazin-2-yl)piperidin-4-amine] | 0.748 µM | 0.025 µM | 0.004 µM | > 31.6 µM | 0.003 µM | – | –
NC1CCN(c2cncc(-c3n[nH]c4ccc(N5CCCC5=O)cc34)n2)CC1 [Example 8, 1-(3-(6-(4-Aminopiperidin-1-yl)pyrazin-2-yl)-1H-indazol-5-yl)pyrrolidin-2-one] | 2.44 µM | 0.041 µM | 0.012 µM | > 31.6 µM | 0.006 µM | – | –
COc1cc(-c2ccc3[nH]nc(-c4cncc(N5CCC(N)CC5)n4)c3c2)nc(OC)n1 [Example 9, 1-(6-(5-(2,6-dimethoxypyrimidin-4-yl)-1H-indazol-3-yl)pyrazin-2-yl)piperidin-4-amine] | 0.437 µM | 0.096 µM | 0.004 µM | > 31.6 µM | 0.001 µM | – | –
CN(c1cncc(-c2n[nH]c3ccc(-c4c(F)cccc4F)cc23)n1)C1CCNCC1 [Example 17, 6-(5-(2,6-Difluorophenyl)-1H-indazol-3-yl)-N-methyl-N-(piperidin-4-yl)pyrazin-2-amine] | 0.424 µM | 0.043 µM | 0.005 µM | 11 µM | 0.004 µM | – | –
NC1CCCN(c2cncc(-c3c[nH]c4ccc(-c5c(F)cccc5F)cc34)n2)C1 (stereo not shown) [Example 21, 1-(6-(5-(2,6-difluorophenyl)-1H-indol-3-yl)pyrazin-2-yl)piperidin-3-amine] | 1.17 µM | 0.098 µM | 0.003 µM | > 31.6 µM | 0.005 µM | – | –
NC1CCN(c2cncc(-c3c[nH]c4ccc(-c5c(F)cccc5F)cc34)n2)CC1 [Example 22, 1-(6-(5-(2,6-difluorophenyl)-1H-indol-3-yl)pyrazin-2-yl)piperidin-4-amine] | 0.439 µM | 0.018 µM | 0.002 µM | 7.11 µM | 0.005 µM | – | –
Fc1cccc(F)c1-c1ccc2[nH]cc(-c3cncc(O[C@@H]4CCCNC4)n3)c2c1 [Example 23, (R)-5-(2,6-difluorophenyl)-3-(6-(piperidin-3-yloxy)pyrazin-2-yl)-1H-indole] | 0.228 µM | 0.009 µM | 0.002 µM | 5.04 µM | 0.004 µM | – | –
Fc1cccc(F)c1-c1ccc2[nH]cc(-c3nccc(N[C@@H]4CCCNC4)n3)c2c1 [Example 24, (R)-2-(5-(2,6-difluorophenyl)-1H-indol-3-yl)-N-(piperidin-3-yl)pyrimidin-4-amine] | – | 0.087 µM | 0.018 µM | – | 0.023 µM | 0.497 µM | > 31.6 µM
CC(C)Oc1cncc(-c2ccc3[nH]cc(-c4cncc(N[C@@H]5CCCNC5)n4)c3c2)n1 [Example 25, (R)-6-(5-(6-isopropoxypyrazin-2-yl)-1H-indol-3-yl)-N-(piperidin-3-yl)pyrazin-2-amine] | – | 0.198 µM | 0.004 µM | – | 0.015 µM | 0.405 µM | 24.7 µM
Fc1cccc(Cl)c1-c1ccc2[nH]cc(-c3cncc(O[C@@H]4CCCNC4)n3)c2c1 [Example 26, (R)-5-(2-chloro-6-fluorophenyl)-3-(6-(piperidin-3-yloxy)pyrazin-2-yl)-1H-indole bis(2,2,2-trifluoroacetate)] | 0.514 µM | 0.023 µM | 0.004 µM | 3.69 µM | 0.006 µM | – | –
NC1CCN(c2cncc(-c3c[nH]c4ccc(-c5c(F)cccc5Cl)cc34)n2)CC1 [Example 27, 1-(6-(5-(2-chloro-6-fluorophenyl)-1H-indol-3-yl)pyrazin-2-yl)piperidin-4-amine bis(2,2,2-trifluoroacetate)] | 0.78 µM | 0.048 µM | 0.01 µM | 27.2 µM | 0.009 µM | – | –
CC(C)Oc1cncc(-c2ccc3[nH]cc(-c4ccnc(N)c4)c3c2)n1 [Example 28, 4-(5-(6-(1-methylethoxy)-2-pyrazinyl)-1H-indol-3-yl)-2-pyridinamine] | – | 0.271 µM | 0.032 µM | – | 0.012 µM | 1.4 µM | 11.3 µM
NC1CCN(c2cncc(-c3n[nH]c4ccc(-c5ccnc(N6CCOCC6)n5)cc34)n2)CC1 [Example 98, 1-(6-(5-(2-(4-morpholinyl)-4-pyrimidinyl)-1H-indazol-3-yl)-2-pyrazinyl)-4-piperidinamine] | – | 0.072 µM | 0.001 µM | > 31.6 µM | 0.002 µM | – | –
c1cc2[nH]nc(-c3cncc(O[C@@H]4CCCNC4)n3)c2cc1-c1cncc(C2CC2)n1 [Example 118, 5-(6-cyclopropyl-2-pyrazinyl)-3-(6-((3R)-3-piperidinyloxy)-2-pyrazinyl)-1H-indazole] | 0.041 µM | 0.024 µM | – | 5.75 µM | 0.001 µM | – | –
CN1CCOc2cc(-c3ccc4[nH]nc(-c5cncc(O[C@@H]6CCCNC6)n5)c4c3)ccc21 [Example 123, 4-methyl-7-(3-(6-((3R)-3-piperidinyloxy)-2-pyrazinyl)-1H-indazol-5-yl)-3,4-dihydro-2H-1,4-benzoxazine] | – | 0.01 µM | 0.001 µM | 3.52 µM | 0.006 µM | – | –
c1cc2c(cc1-c1ccc3[nH]nc(-c4cncc(O[C@@H]5CCCNC5)n4)c3c1)OCCO2 [Example 140, 5-(2,3-dihydro-1,4-benzodioxin-6-yl)-3-(6-((3R)-3-piperidinyloxy)-2-pyrazinyl)-1H-indazole] | – | 0.019 µM | 0.002 µM | 7.78 µM | 0.006 µM | – | –
Fc1cccc(F)c1-c1ccc2[nH]nc(-c3cncc(O[C@H]4CNC[C@@H](F)C4)n3)c2c1 [Example 196, 5-(2,6-difluorophenyl)-3-(6-(((3R,5S)-5-fluoro-3-piperidinyl)oxy)-2-pyrazinyl)-1H-indazole] | 0.146 µM | 0.019 µM | 0.004 µM | – | 0.006 µM | – | –
Fc1cccc(F)c1-c1ccc2[nH]cc(-c3cncc(NC4CCCCC4)n3)c2c1 [Example 202, N-cyclohexyl-6-(5-(2,6-difluorophenyl)-1H-indol-3-yl)-2-pyrazinamine] | 8.85 µM | 0.414 µM | 0.021 µM | – | 0.051 µM | – | –
N[C@@H]1CCCN(c2cncc(-c3c[nH]c4ccc(-c5c(F)cccc5F)cc34)n2)C1 [Example 203, (3R)-1-(6-(5-(2,6-difluorophenyl)-1H-indol-3-yl)-2-pyrazinyl)-3-piperidinamine] | 3.05 µM | 0.184 µM | 0.008 µM | – | 0.018 µM | – | –
O=C1CN(c2cncc(-c3c[nH]c4ccc(-c5c(F)cccc5F)cc34)n2)CCN1 [Example 204, 4-(6-(5-(2,6-difluorophenyl)-1H-indol-3-yl)-2-pyrazinyl)-2-piperazinone] | – | 0.987 µM | 0.08 µM | – | 0.098 µM | 2.23 µM | –
NC1CCN(c2cncc(-c3c[nH]c4ccc([N+](=O)[O-])cc34)n2)CC1 [Example 232, 1-(6-(5-nitro-1H-indol-3-yl)pyrazin-2-yl)piperidin-4-amine] | – | 0.065 µM | 0.047 µM | – | 0.028 µM | – | > 15.8 µM
COC(=O)c1ccc2[nH]cc(-c3cncc(N4CCC(N)CC4)n3)c2c1 [Example 236, methyl 3-(6-(4-aminopiperidin-1-yl)pyrazin-2-yl)-1H-indole-5-carboxylate] | – | 0.044 µM | 0.005 µM | – | 0.007 µM | – | 5.82 µM
